# Results published in patent publication US20260234188A1, “CHEMOKINE-BINDING PEPTIDES” (Oxford University Innovation Limited, priority 2022, published 2026).
# “Also recorded” adds a separate entry of the source.
# Tested on: panel of up to 42 human chemokines
# Assay: Phage-display next generation sequencing screen of overlapping hexadecapeptide libraries, chemokines displayed on streptavidin beads
# Format: binding
# Conditions: log2E greater than 5, chemokines named by first part of UniProt Entry Name
# Text: FIG. 1. Exemplar results from phage display screens. Phage-display libraries were constructed and analysed as described in (McLaughlin, 2013) (Tonikian, 2007). […] FIG. 1A, CC chemokines against evasin A library. FIG. 1B, CXC chemokines against the evasin B library. FIG. 1C, CXC and CX3C chemokines against the viral chemokine binding protein library. FIG. 1D, CXC chemokines against the chemokine library. […] Identified hexadecapeptides were mapped to the position in the originating protein (x-axis) and to fold enrichment (log 2 E, left y-axis). Regions of interest (ROI) were defined where the cumulative residue log 2 E, (clog 2 E:r, right y-axis) exceeds the 95% upper confidence interval of the median clog 2 E:r for the entire protein (indicated as a horizontal dotted line in each panel). Proteins are referred to by their UniProt ID.
# Hexadecapeptides were identified using a phage-display next generation sequencing approach (McLaughlin, 2013). Libraries containing a total of 55662 overlapping peptides (from the tick chemokine binding proteins shown in Tables 3A and 3B, the viral chemokine binding proteins shown in Table 3C, the human chemokines shown in Table 3 E, and the human/viral chemokine receptors and other chemokine-binding proteins shown in Table 3D) were first constructed, and then screened against a panel of up to 42 human chemokines, as shown in Table 3F.
row,Substance,Chemokines Bound
1,CR362 (AEIYEYLFFFSFFFLA),"CCL22, CXL11,; also recorded: CXL13"
2,CR498 (AFLWGIFPTVIFSYFY),"CCL17, CCL18,; also recorded: CCL19, CCL20,; also recorded: CCL25, CXL13"
3,CR2290 (AWFLPIMYSIICFVGL),"CCL20, CCL22, and CCL25, CCL28, and X3CL1, CXL10, and CXL11, SDF1, and CXL13, CXL14, and IL8"
4,CR2291 (AWFLPIMYSIISFVGL),"CCL1, CCL11, and IL8"
5,CR2301 (AWLPYYIGISIDSFIL),"CCL17, CCL19,; also recorded: CCL20"
6,CR2340 (AYDLFIGIKIVYCFLW),"CCL15, CCL17, and CCL18, CCL19, and CCL20, CCL22, and CCL25, CCL28, and X3CL1, CXL10, and CXL11, SDF1, and CXL13, CXL14, and IL8"
7,CR2439 (CALVTLITSLFGSIFK),"CCL17, CCL18, and CCL19, CCL20, and CXL10, SDF1, and CXL13, CXL14, and IL8"
8,CR2524 (CFLWGIFPTVIFSYFY),"CCL22, CCL25, and CXL13, CXL14, and IL8"
9,CR2553 (CGIITSVLAWVTAILA),"CCL11, CCL2, and CCL20, CCL22, and CCL28, CCL8, and X3CL1, CXL10, and SDF1, CXL14, and IL8"
10,CR2586 (CILVWLLAFCVSLPDT),"CCL20, CCL28,; also recorded: CXL10, CXL11,; also recorded: CXL14"
11,CR3107 (DFAAILLYIDDFSAYF),"CCL18, X3CL1,; also recorded: CXL13"
12,CR3135 (DFLCKLLNMIFSISLY),"CCL17, CCL22,; also recorded: CCL25, CCL28,; also recorded: CXL11, IL8"
13,CR3146 (DFLSKLLNMIFSISLY),"CCL17, CCL18,; also recorded: CCL19, CCL2,; also recorded: CCL20, CXL14"
14,CR3161 (DFSAILLYIDDFSAYF),"CCL17, CCL18,; also recorded: X3CL1, CXL10,; also recorded: SDF1, CXL13,; also recorded: CXL14"
15,CR3302 (DLFIGIKIVYSFLWGI),"CCL1, CCL17,; also recorded: CCL18, CCL20,; also recorded: CCL22, CCL28,; also recorded: CXL10, CXL11,; also recorded: CXL13, IL8"
16,CR3373 (DLTNWKLLAEIYEYLF),"CCL2, CCL22, and CCL28, CXL10, and CXL11, SDF1, and CXL13, CXL14, and IL8"
17,CR3716 (DVYLLNLAISDLLFVF),"CCL11, CCL2,; also recorded: CCL8, CXL11"
18,CR3800 (DYSIILMFLSDFSFIF),"CCL1, CCL11, and CCL15, CCL18, and CCL28, X3CL1, and CXL10, CXL11, and SDF1, CXL13, and IL8"
19,CR4135 (EIYEYLFFFSFFFLAL),"CCL20, CCL25,; also recorded: CXL11, CXL13"
20,CR4205 (ELFLAVKIVFSFIWGV),"CCL11, CCL17,; also recorded: CCL18, CCL19,; also recorded: CCL2, CCL20,; also recorded: CCL22, CCL25,; also recorded: CCL28, X3CL1,; also recorded: CXL10, CXL11,; also recorded: SDF1, CXL13,; also recorded: CXL14, IL8"
21,CR4463 (ESLFAALVTLITSLFG),"CCL1, CCL17,; also recorded: CCL18, CCL2,; also recorded: X3CL1, CXL10,; also recorded: CXL11, IL8"
22,CR4465 (ESLFSALVTLITSLFG),"CCL18, CCL8,; also recorded: CXL10"

row,Substance,Chemokines Bound
1,CR4712 (FAIVVAYFLSWGPYNF),"CCL18, CCL19,; also recorded: CCL20, CCL22,; also recorded: CCL25, SDF1"
2,CR4753 (FAQLVYFIYHAVASYS),"CCL2, CXL13, and IL8"
3,CR4754 (FARAIDIIYSLITSAN),"CCL18, CCL28,; also recorded: X3CL1"
4,CR4756 (FASDFVLMWAVFFMTV),"CCL17, X3CL1,; also recorded: CXL10"
5,CR4760 (FASFYLLDFILALVGN),"CCL22, CXL10,; also recorded: CXL11, SDF1,; also recorded: CXL13, IL8"
6,CR4802 (FCALVTLITSLFGSIF),"CCL11, CCL17,; also recorded: CCL18, CCL19,; also recorded: CCL20, CCL22,; also recorded: CCL25, CCL28,; also recorded: CCL8, X3CL1,; also recorded: CXL10, CXL11,; also recorded: SDF1, CXL13,; also recorded: CXL14, IL8"
7,CR4845 (FDFMILNLSFCDLFIC),"X3CL1, CXL13, and IL8"
8,CR5021 (FFSGMLLLLSISIDRY),"CCL18, CCL19,; also recorded: CCL20, CCL28"
9,CR5027 (FFSQLVYFIYHAVSSY),"CCL17, CCL18, and CCL20, CXL10, and CXL11, SDF1, and IL8"
10,CR5055 (FFYYLYVYLDIFSVVA),"CCL18, CCL2, and CCL22, CXL10, and SDF1"
11,CR5077 (FGFFIPLMFMIFSYTF),"CCL18, X3CL1,; also recorded: CXL14"
12,CR5103 (FGLLGNILVVITFAFY),"CCL19, CCL20,; also recorded: CCL22, CCL28,; also recorded: CXL10, SDF1,; also recorded: CXL14"
13,CR5170 (FGVITSIVTWGLAVLA),"X3CL1, CXL10, and IL8"
14,CR5171 (FGVVTSVITWLVAVFA),"CCL11, CCL17, and CCL18, CCL2, and CCL20, CCL22, and CCL25, CCL28, and X3CL1, CXL10, and CXL11, SDF1, and CXL13, CXL14, and IL8"
15,CR5172 (FGVVTSVITWVVAVFA),"CCL1, CCL18, and CXL10, SDF1, and IL8"
16,CR5175: chemokine binding peptide of Table 5A used in FIG. 5 combinations (FGVWLMSIVGTFLNML),"CCL17, CCL22, and IL8"
17,CR5236 (FIFVIGMIANSVVVWV),"CCL19, CCL28,; also recorded: CXL11, SDF1,; also recorded: CXL13, IL8"
18,CR5242 (FIGFFGSIFFITVISI),"CCL17, CCL18,; also recorded: CCL20, X3CL1,; also recorded: CXL13"
19,CR5243 (FIGFFSGIFFIILLTI),"CCL17, CCL18,; also recorded: CCL19, CCL20,; also recorded: CCL22, CXL11,; also recorded: SDF1, CXL14"
20,CR5245 (FIGIKIVYCFLWGIFP),"CCL1, CCL15,; also recorded: CCL17, CCL18,; also recorded: CCL19, CCL20,; also recorded: CCL22, CCL25,; also recorded: CCL28, X3CL1,; also recorded: CXL10, CXL11,; also recorded: SDF1, CXL13,; also recorded: CXL14, IL8"
21,CR5246 (FIGIKIVYSFLWGIFP),"CCL20, CCL22,; also recorded: X3CL1, CXL10,; also recorded: CXL11"

# Same assay, conditions: log2E greater than 5, chemokines named by first part of UniProt entry name, C5a (control) binders excluded
row,Substance,Chemokines Bound
1,CK576 (CADPSESWVQEYVYDL),"CCL17, CCL5,; also recorded: CXL10"
2,CK1301 (FIADYFETSSQCSKPS),"CCL20, CXL10,; also recorded: CXL14, IL8"
3,CK1408 (FSRCCFSFAEQEIPLR),"CCL1, CCL2,; also recorded: CCL8, CXL14"
4,CK1445 (FVVDYYETSSLCSQPA),"CCL19, CCL2, and X3CL1, SDF1, and IL8"
5,CK1982 (IFKTIVAKEICADPKQ),"CCL1, CCL22,; also recorded: CCL5, X3CL1,; also recorded: CXL10, CXL13"
6,CK2307 (IVRNFHYLLIKDGSRV),"CCL19, CCL20,; also recorded: CCL22"
7,CK3115 (LLESYFETNSECSKPG),"CCL19, CCL22,; also recorded: X3CL1, CXL14"
8,CK3274 (LRCVCLQTTQGVHPKM),"X3CL1, CXL10,; also recorded: CXL11"
9,CK3750 (PEWVNTPSTCCLKYYE),"CCL18, CCL19,; also recorded: CCL22, X3CL1"
10,CK4643 (RITNIQCPKEAVIFKT),"CCL1, CCL19,; also recorded: CCL20"
11,CK6066 (VCADPSESWVQEYVYD),"CCL19, CCL28,; also recorded: X3CL1, IL8"
12,CR1003 (ALAFIYVLMFLANAIG),"CCL17, CCL18, and CCL19, CCL20, and CCL28, X3CL1, and CXL10, SDF1, and IL8"
13,CR1004 (ALAFIYVLMFLCNAIG),"CCL17, CCL18,; also recorded: CCL19, CCL20,; also recorded: CXL10, CXL14"
14,CR1005 (ALAFIYVLMFLSNAIG),"CCL19, CCL2,; also recorded: CCL20, CCL28,; also recorded: CXL14"
15,CR1124 (ALIQMLEICIGFVVPF),"CCL18, CCL19,; also recorded: CCL20"
16,CR1325 (ALYSLLFLLGLLGNGA),"CCL17, CCL19,; also recorded: CCL2, CCL20,; also recorded: CCL22, CXL11,; also recorded: CXL14"
17,CR1475 (ANVTFTGLIAAFSWFM),"CCL2, CCL22,; also recorded: CXL11, CXL13"
18,CR1802 (ASMILESLFAALVTLI),"CCL17, CCL18,; also recorded: CCL2, CCL20,; also recorded: CCL22, CCL25,; also recorded: CCL28, CXL10"
19,CR1923 (ATFKILISIVWGVMPV),"CCL18, CCL28,; also recorded: X3CL1, CXL10,; also recorded: CXL11, SDF1,; also recorded: CXL13, IL8"
20,CR2028 (ATSWVVIFWILAALMG),"CCL17, CCL18,; also recorded: CCL19, CCL20,; also recorded: CCL28, SDF1,; also recorded: CXL13, CXL14"
21,CR2051 (ATYMLLVLYYAMLPLM),"CCL20, CCL22,; also recorded: CCL28, X3CL1,; also recorded: CXL10, SDF1,; also recorded: CXL14, IL8"
22,CR2129 (AVFYALLFVFSLLGNS),"CCL15, CCL18, and CCL19, CCL20, and CCL25, CCL28, and SDF1"
23,CR2158 (AVKIVFSFIWGVLPTM),"CCL18, CCL20,; also recorded: SDF1, CXL14"
24,CR2278 (AVWGLSLLFALPDFIF),"CCL18, CCL2,; also recorded: CCL22, CCL28,; also recorded: CXL10, CXL11,; also recorded: SDF1, CXL13,; also recorded: CXL14, IL8"
25,CR2290 (AWFLPIMYSIICFVGL),"CCL1, CCL17,; also recorded: CCL18, CCL19,"
